Laboratory results from patent US20260325533A1, “CDK INHIBITOR COMPOUNDS” (ALEKSIA THERAPEUTICS, INC., priority 2023, published 2026).
Read-outs that look alike come from different tables or passages of the source.

Key:
Type in all cases: biochemical
CDK6/CCND1 = CDK6/CCND1 (Homo sapiens, UniProt Q00534); assay: CDK6 homogeneous time-resolved fluorescence (HTRF) kinase assay; conditions: CDK6/CCND
Summary of the method: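 Recombinant CDK6/CCND1 (1 nM final) was preincubated with compound for 20 min at 23 °C in HEPES buffer with MgCl2, EGTA, DTT and Tween 20. Kinase reaction then ran 60 min at 23 °C with 1 mM ATP and 50 nM ULight-4E-BP1 (Thr37/46) peptide, and was stopped with EDTA.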

CDK2/CCNE1 = CDK2/CCNE1 (Homo sapiens, UniProt P24941); assay: CDK2 homogeneous time-resolved fluorescence (HTRF) kinase assay; conditions: CDK2/CCNE
Summary of the method: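 An HTRF format measures CDK2/CCNE1 (3 nM) phosphorylating a 4E-BP1 Thr37/46 peptide at high (1 mM) ATP. Reactions run one hour at 23 °C, then EDTA-quenched and probed with Eu-labelled phospho-specific antibody.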

CDK4/CCND3 = CDK4/CCND3 (Homo sapiens, UniProt P11802); assay: CDK4 homogeneous time-resolved fluorescence (HTRF) kinase assay; conditions: CDK4/CCND
Summary of the method: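 HTRF kinase assay, CDK4/CCND3 1.5 nM, ATP 1 mM, ULight-4E-BP1 peptide 50 nM, 23 °C, 60 min reaction after 20 min preincubation. Eu-anti-pThr37/46 antibody detection. 11-pt half-log curves from 10 μM → IC50.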

CDK1/CCNB1 = CDK1/CCNB1 (Homo sapiens, UniProt P06493); assay: CDK1 homogeneous time-resolved fluorescence (HTRF) kinase assay; conditions: CDK1/CCNB
Summary of the method: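 Read-out: TR-FRET (Eu anti-phospho-4E-BP1 Thr37/46 antibody, 2 nM; 665 nm or 665/615 ratio) after 60 min phosphorylation of 50 nM ULight-peptide by 0.5 nM CDK1/CCNB1 at 1 mM ATP, 23 °C. Compound preincubated 20 min with enzyme; 1% DMSO.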

[1] = 25-250 nM marked x, read-out: CDK6/CCND IC50 25-250 nM
[2] = >250 nM marked x, read-out: CDK1/CCNB IC50 >250 nM
[3] = x = IC50 >250 nM, read-out: CDK6/CCND IC50 (>250 nM column)
[4] = x = IC50 25-250 nM, read-out: CDK2/CCNE IC50 (25-250 nM)
[5] = x = IC50 >250 nM, read-out: CDK4/CCND IC50 (>250 nM column)
[6] = x = IC50 >250 nM, read-out: CDK1/CCNB IC50 (>250 nM column)
[7] = x = IC50 25-250 nM, read-out: CDK6/CCND IC50 (25-250 nM)
[8] = x = IC50 <25 nM, read-out: CDK2/CCNE IC50 (<25 nM)
[9] = x = IC50 25-250 nM, read-out: CDK4/CCND IC50 (25-250 nM)
[10] = x = IC50 25-250 nM, read-out: CDK1/CCNB IC50 (25-250 nM)
[11] = 25-250 nM, 1 mM ATP, read-out: CDK6/CCND IC50, 25-250 nM
[12] = <25 nM, read-out: CDK2/CCNE IC50, <25 nM
[13] = 25-250 nM, read-out: CDK4/CCND IC50, 25-250 nM
[14] = >250 nM, read-out: CDK1/CCNB IC50 >250 nM

Chain of CDK4/CCND3 (P11802 whole entry): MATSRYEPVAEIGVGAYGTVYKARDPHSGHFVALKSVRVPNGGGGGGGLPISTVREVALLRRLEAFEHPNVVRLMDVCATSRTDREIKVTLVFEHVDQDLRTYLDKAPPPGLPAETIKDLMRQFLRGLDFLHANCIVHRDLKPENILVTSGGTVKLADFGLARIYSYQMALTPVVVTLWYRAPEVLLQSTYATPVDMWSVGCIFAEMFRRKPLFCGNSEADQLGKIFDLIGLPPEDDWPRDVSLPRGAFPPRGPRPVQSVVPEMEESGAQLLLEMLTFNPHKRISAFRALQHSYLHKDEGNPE
Chain of CDK4/CCND3 (P30281 whole entry partner): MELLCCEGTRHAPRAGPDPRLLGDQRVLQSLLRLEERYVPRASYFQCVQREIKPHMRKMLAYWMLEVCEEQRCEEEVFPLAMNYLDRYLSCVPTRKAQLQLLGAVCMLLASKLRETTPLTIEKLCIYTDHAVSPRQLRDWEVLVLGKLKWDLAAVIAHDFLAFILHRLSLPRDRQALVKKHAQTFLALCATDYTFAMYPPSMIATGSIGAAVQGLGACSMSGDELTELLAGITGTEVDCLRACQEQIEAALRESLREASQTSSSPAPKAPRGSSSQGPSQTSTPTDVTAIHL
Chain of CDK6/CCND1 (Q00534 whole entry): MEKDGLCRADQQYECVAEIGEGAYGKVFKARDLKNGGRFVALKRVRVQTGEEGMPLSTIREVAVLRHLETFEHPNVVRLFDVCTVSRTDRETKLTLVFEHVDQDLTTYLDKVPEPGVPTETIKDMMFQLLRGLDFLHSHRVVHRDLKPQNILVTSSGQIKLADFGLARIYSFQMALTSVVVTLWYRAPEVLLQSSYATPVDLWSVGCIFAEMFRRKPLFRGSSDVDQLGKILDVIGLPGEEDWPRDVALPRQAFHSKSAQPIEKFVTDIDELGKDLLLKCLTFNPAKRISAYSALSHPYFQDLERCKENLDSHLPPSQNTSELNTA
Chain of CDK6/CCND1 (P24385 whole entry partner): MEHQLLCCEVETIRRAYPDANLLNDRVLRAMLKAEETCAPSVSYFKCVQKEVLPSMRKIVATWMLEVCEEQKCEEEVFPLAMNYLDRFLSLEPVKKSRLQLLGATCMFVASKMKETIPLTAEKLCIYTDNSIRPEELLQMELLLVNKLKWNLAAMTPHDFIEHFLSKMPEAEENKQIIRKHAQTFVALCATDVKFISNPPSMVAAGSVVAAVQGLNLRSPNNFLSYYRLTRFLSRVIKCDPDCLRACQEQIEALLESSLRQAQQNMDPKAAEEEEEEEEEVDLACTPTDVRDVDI
Chain of CDK1/CCNB1 (P06493 whole entry): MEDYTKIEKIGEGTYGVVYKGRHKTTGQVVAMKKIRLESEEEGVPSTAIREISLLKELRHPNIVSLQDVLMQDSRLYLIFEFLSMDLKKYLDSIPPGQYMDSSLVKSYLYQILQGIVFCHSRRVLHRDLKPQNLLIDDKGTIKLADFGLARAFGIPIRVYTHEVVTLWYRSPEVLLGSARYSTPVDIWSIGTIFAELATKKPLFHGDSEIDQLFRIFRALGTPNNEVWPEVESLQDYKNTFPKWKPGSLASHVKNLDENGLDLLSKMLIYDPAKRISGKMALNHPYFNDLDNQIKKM
Chain of CDK1/CCNB1 (P14635 whole entry partner): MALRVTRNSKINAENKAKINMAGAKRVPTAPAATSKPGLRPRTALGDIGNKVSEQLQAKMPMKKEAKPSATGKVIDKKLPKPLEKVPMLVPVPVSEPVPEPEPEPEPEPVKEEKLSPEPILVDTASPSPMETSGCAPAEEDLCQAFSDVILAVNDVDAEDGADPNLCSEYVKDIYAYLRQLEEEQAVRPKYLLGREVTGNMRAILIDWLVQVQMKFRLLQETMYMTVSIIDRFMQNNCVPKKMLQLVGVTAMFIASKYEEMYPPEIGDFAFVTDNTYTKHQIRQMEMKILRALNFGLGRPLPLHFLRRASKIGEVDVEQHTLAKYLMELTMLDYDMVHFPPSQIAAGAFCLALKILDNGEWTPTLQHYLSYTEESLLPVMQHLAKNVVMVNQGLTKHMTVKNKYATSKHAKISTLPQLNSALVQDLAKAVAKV

IC50 (CDK6/CCND1; [3]) [nM]	IC50 (CDK4/CCND3; [5]) [nM]	IC50 (CDK1/CCNB1; [6]) [nM]	IC50 (CDK6/CCND1; [7]) [nM]	IC50 (CDK2/CCNE1; [8]) [nM]	Structure (SMILES)	other results
–	–	–	–	–	CS(=O)(=O)c1ccc(Nc2cc3c(C4=CC(O)CCC4)nccc3cn2)cc1 (racemic) [Ex 240, 3-(7-((4-(methylsulfonyl)phenyl)amino)-2,6-naphthyridin-1-yl)cyclohex-2-en-1-ol]	IC50 (CDK6/CCND1; [1]): 25 to 250 nM; IC50 (CDK2/CCNE1; 25-250 nM marked x, read-out: CDK2/CCNE IC50 25-250 nM): 25 to 250 nM; IC50 (CDK4/CCND3; >250 nM marked x, read-out: CDK4/CCND IC50 >250 nM): > 250 nM; IC50 (CDK1/CCNB1; [2]): > 250 nM
–	–	–	–	–	CS(=O)(=O)c1ccc(Nc2cc3c(C#CC4CCC(C#N)CC4)nccc3cn2)cc1 (racemic) [Ex 252, 4-((7-((4-(methylsulfonyl)phenyl)amino)-2,6-naphthyridin-1-yl)ethynyl)cyclohexane-1-carbonitrile]	IC50 (CDK6/CCND1; [1]): 25 to 250 nM; IC50 (CDK2/CCNE1; <25 nM, read-out: CDK2/CCNE IC50 <25 nM): < 25 nM; IC50 (CDK4/CCND3; 25-250 nM marked x, read-out: CDK4/CCND IC50 25-250 nM): 25 to 250 nM; IC50 (CDK1/CCNB1; [2]): > 250 nM
> 250	> 250	> 250	–	–	N=S(=O)(c1ccc(Nc2cc3c(C#Cc4cccnc4N)nccc3cn2)cc1)C1CCC1 (racemic) [Ex 416, (4-((5-((2-aminopyridin-3-yl)ethynyl)-2,6-naphthyridin-3-yl)amino)phenyl)(cyclobutyl)(imino)-l6-sulfanone]	IC50 (CDK2/CCNE1; [4]): 25 to 250 nM
> 250	> 250	> 250	–	–	CN=S(C)(=O)c1ccc(Nc2cc3c(-c4ccc5c(cnn5CC(O)(C(F)(F)F)C(F)(F)F)c4C)nccc3cn2)cc1 (racemic) [Ex 470, methyl(4-((5-(4-methyl-1-(3,3,3-trifluoro-2-hydroxy-2-(trifluoromethyl)propyl)-1H-indazol-5-yl)-2,6-naphthyridin-3-yl)amino)phenyl)(methylimino)-l6-sulfanone]	IC50 (CDK2/CCNE1; [4]): 25 to 250 nM
–	–	> 250	25 to 250	< 25	CCS(=N)(=O)c1ccc(Nc2cc3c(-c4ccc5c(cnn5CC(O)(C(F)(F)F)C(F)(F)F)c4C)nccc3cn2)cc1 (racemic) [Ex 473, ethyl(imino)(4-((5-(4-methyl-1-(3,3,3-trifluoro-2-hydroxy-2-(trifluoromethyl)propyl)-1H-indazol-5-yl)-2,6-naphthyridin-3-yl)amino)phenyl)-l6-sulfanone]	IC50 (CDK4/CCND3; [9]): 25 to 250 nM
> 250	> 250	> 250	–	< 25	CS(=O)(=O)c1ccc(Nc2cc3c(C#CC(O)CO)nccc3cn2)cc1 (racemic) [Ex 477, 4-(7-((4-(methylsulfonyl)phenyl)amino)-2,6-naphthyridin-1-yl)but-3-yne-1,2-diol]	–
–	–	–	25 to 250	< 25	CCS(=N)(=O)c1ccc(Nc2cc3c(C#Cc4ccc5oc(=O)[nH]c5c4)nccc3cn2)cc1 (racemic) [Ex 479, 5-((7-((4-(ethylsulfonimidoyl)phenyl)amino)-2,6-naphthyridin-1-yl)ethynyl)benzo[d]oxazol-2(3H)-one]	IC50 (CDK4/CCND3; [9]): 25 to 250 nM; IC50 (CDK1/CCNB1; [10]): 25 to 250 nM
> 250	> 250	> 250	–	< 25	CCS(=N)(=O)c1ccc(Nc2cc3c(C#Cc4ccc(=O)[nH]n4)nccc3cn2)cc1 (racemic) [Ex 485, 6-((7-((4-(ethylsulfonimidoyl)phenyl)amino)-2,6-naphthyridin-1-yl)ethynyl)pyridazin-3(2H)-one]	–
> 250	> 250	> 250	–	–	CCS(=N)(=O)c1ccc(Nc2cc3c(C#Cc4cccnc4N)nccc3cn2)cc1 (racemic) [Ex 489, (4-((5-((2-aminopyridin-3-yl)ethynyl)-2,6-naphthyridin-3-yl)amino)phenyl)(ethyl)(imino)-l6-sulfanone]	IC50 (CDK2/CCNE1; [4]): 25 to 250 nM
> 250	–	–	25 to 250	< 25	CS(=N)(=O)c1ccc(Nc2cc3c(C#Cc4ccc5oc(=O)[nH]c5c4)nccc3cn2)cc1 (racemic) [Ex 491, 5-((7-((4-(S-methylsulfonimidoyl)phenyl)amino)-2,6-naphthyridin-1-yl)ethynyl)benzo[d]oxazol-2(3H)-one]	IC50 (CDK4/CCND3; [9]): 25 to 250 nM; IC50 (CDK1/CCNB1; [10]): 25 to 250 nM
> 250	> 250	> 250	–	< 25	CS(=N)(=O)c1ccc(Nc2cc3c(C#Cc4ccc(=O)[nH]n4)nccc3cn2)cc1 (racemic) [Ex 497, 6-((7-((4-(S-methylsulfonimidoyl)phenyl)amino)-2,6-naphthyridin-1-yl)ethynyl)pyridazin-3(2H)-one]	–
> 250	> 250	> 250	–	–	CS(=N)(=O)c1ccc(Nc2cc3c(C#Cc4ccc(C#N)cc4)nccc3cn2)cc1 (racemic) [Ex 526, 4-((7-((4-(S-methylsulfonimidoyl)phenyl)amino)-2,6-naphthyridin-1-yl)ethynyl)benzonitrile]	IC50 (CDK2/CCNE1; [4]): 25 to 250 nM
–	> 250	> 250	25 to 250	< 25	CC(CCO)N1CCc2cc(-c3nccc4cnc(Nc5ccc(S(C)(=O)=O)cc5)cc34)ccc2C1 (racemic) [Ex 619, 3-(6-(7-((4-(methylsulfonyl)phenyl)amino)-2,6-naphthyridin-1-yl)-3,4-dihydroisoquinolin-2(1H)-yl)butan-1-ol]	–
–	–	> 250	25 to 250	< 25	CC(O)CN1CCc2cc(-c3nccc4cnc(Nc5ccc(S(C)(=O)=O)cc5)cc34)ccc2C1 (racemic) [Ex 628, 1-(6-(7-((4-(methylsulfonyl)phenyl)amino)-2,6-naphthyridin-1-yl)-3,4-dihydroisoquinolin-2(1H)-yl)propan-2-ol]	IC50 (CDK4/CCND3; [9]): 25 to 250 nM
> 250	> 250	> 250	–	–	Cn1cc(C2CCN(c3nccc4cnc(Nc5ccc(S(C)(=O)=O)cc5)cc34)C2)cn1 (racemic) [Ex 654, 5-(3-(1-methyl-1H-pyrazol-4-yl)pyrrolidin-1-yl)-N-(4-(methylsulfonyl)phenyl)-2,6-naphthyridin-3-amine]	IC50 (CDK2/CCNE1; x = IC50 >250 nM, read-out: CDK2/CCNE IC50 (>250 nM column)): > 250 nM
–	–	–	25 to 250	< 25	Cc1c(-c2nccc3cnc(Nc4ccc(S(C)(=O)=O)cc4)cc23)ccc2c1cnn2CC(C)O (racemic) [Ex 672, 1-(4-methyl-5-(7-((4-(methylsulfonyl)phenyl)amino)-2,6-naphthyridin-1-yl)-1H-indazol-1-yl)propan-2-ol]	IC50 (CDK4/CCND3; [9]): 25 to 250 nM; IC50 (CDK1/CCNB1; [10]): 25 to 250 nM
> 250	> 250	> 250	–	–	Cc1c(-c2nccc3cnc(Nc4ccc(S(C)(=O)=O)cc4)cc23)ccc2nn(CC(C)O)cc12 (racemic) [Ex 675, 1-(4-methyl-5-(7-((4-(methylsulfonyl)phenyl)amino)-2,6-naphthyridin-1-yl)-2H-indazol-2-yl)propan-2-ol]	IC50 (CDK2/CCNE1; [4]): 25 to 250 nM
–	–	–	–	–	Cc1c(-c2nccc3cnc(Nc4ccc(S(=O)(=O)NC5CCCN(CCO)C5)cc4)cc23)ccc2c1cnn2CC(C)(C)O (racemic) [Ex 760, 4-((5-(1-(2-hydroxy-2-methylpropyl)-4-methyl-1H-indazol-5-yl)-2,6-naphthyridin-3-yl)amino)-N-(1-(2-hydroxyethyl)piperidin-3-yl)benzenesulfonamide]	IC50 (CDK6/CCND1; [11]): 25 to 250 nM; IC50 (CDK2/CCNE1; [12]): < 25 nM; IC50 (CDK4/CCND3; [13]): 25 to 250 nM; IC50 (CDK1/CCNB1; [14]): > 250 nM
–	–	–	–	–	Cc1c(-c2nccc3cnc(Nc4ccc(S(=O)(=O)NC5CCCN(C)C5)cc4)cc23)ccc2c1cnn2CC(C)(C)O (racemic) [Ex 761, 4-((5-(1-(2-hydroxy-2-methylpropyl)-4-methyl-1H-indazol-5-yl)-2,6-naphthyridin-3-yl)amino)-N-(1-methylpiperidin-3-yl)benzenesulfonamide]	IC50 (CDK6/CCND1; [11]): 25 to 250 nM; IC50 (CDK2/CCNE1; [12]): < 25 nM; IC50 (CDK4/CCND3; [13]): 25 to 250 nM; IC50 (CDK1/CCNB1; [14]): > 250 nM
